From patent EP2229935A1, “Peptide derivatives or pharmaceutically acceptable salts thereof, method for producing the same, use of said derivatives and pharmaceutical composition” (Nebolsin, Vladimir Evgenievich, priority 1997, dated 1999)
Where two headings read alike, the source gives them in different places. Marks after values point to notes of the source that are not given here.

Key:
mongrel white male mice = experiment: Delayed type hypersensitivity induced by sheep red blood cells; format: in vivo; settings: DTH to sheep red blood cells; for Difference in paw masses: 24 hours; for Percent to the control / Reaction index, percent: oral
Procedure: Studies were cartried out on mongrel white male mice with initial body mass 22-24 g. Each group included 10 animals. Mice were sensitized with intravenous injection of the suspension of 2 x 10^5 sheep red blood, cells in 0.05 ml normal saline. By day 5, the suspension of 10^8 sheep red blood cells in 0.05 ml normal saline was injected into the hind paw pad. As a control, the solvent, i.e. normal saline in equivalent amount, was injected. Reaction intensity was assessed in 24 hours by difference in the paw masses of animals. Reaction index = (Mt -Mc)/(Mc)x 100 [formula]
The test compound III was orally administered for three days at doses 50 and 500 µg/kg according to the dosage regimen - days 3, 4 and 5, day 5 - administration of the anaphylaxis-provoking dose.

mongrel male rats [1] = settings: po, 96 h
Procedure: (§1) Hypolipidemic activity of the compounds of general formula (I) was studied on the model of experimental hyperlipidemia [Arichi H., Kumura H.O. Effects of stibens compounds of roots of polygonum cuspidatium on the lipid metabolism. […] Each group of animals included 10 rats. […] Blood samples were taken for analysis 18 hours after the last administration of the test substances during which period food was taken away from rats.
(§2) The following parameters were determined: total cholesterol (total CS); high density lipoprotein cholesterol (HDL-CS); low density lipoprotein cholesterol and very low density lipoprotein cholesterol (LDL-CS and VLDL-CS); triglycerides (TG). Blood serum CS level was determined according to the Ilk method [Biochemical examination in the clinic. […] HDL-CS level was measured in supernatant following heparine-manganese precipitation of LDL+VLDL [Titov V.N., Brener E.D., Khaltaiev N.G., Zadoya A.A., Tvorogova M.G. A method and diagnostic significance of cholesterol level study in α-lipoproteins. […] LDL-CS level determination was carried out by calculation according to the formula presented in the work Friedwald W.T. [Friedwald W.T., Levy K.J., Leus R. Fat transport in lipoproteins: an integrated approach to mechanism and disorders.
(§3) To assess the effect of the test compounds on the ratio of atherogenic and antiatherogenic blood serum lipoproteins, cholesterol index (Kcs) was calculated according to the formula presented in the work [Klimov A.N., Nikulcheva N.G. Lipoproteins, dylipoproteinemias and atherosclerosis.
(§4) Blood serum TG level was determined using the conventional method [Friedwald W.T., Levy R.I., Fredrickson D.S. Estimation of concentration of low-density lipoprotein cholesterol in plasma, without use of preparative ultracentrifuge.

mongrel mice = experiment: Acute hypobaric hypoxia model (AHBH); format: in vivo; settings: oral 4 days; for Effect in percent: lifetime relative to control; for Lifetime under hypoxic conditions (minutes): mice, 170-185 mm Hg
Procedure: The tests of determining average lifetime of animals in a closed volume and on the model of acute hypobaric hypoxia at the minimum atmospheric rarefaction (170-185 mm Hg) were used to study antihypoxic activity of the compunds of general formula (I).
Simulation of AHBH was done in a flow-through chamber at temperature 22°C. Experiments were carried out on mongrel mice with initial body mass 20 g at the minimum rarefaction 170-185 mm Hg, that corresponds to the altitude of 10500-11000 m. Lift rate was 35 m/second. Each group included 15 animals. Compounds were administered orally, lift on to altitude was performed 2 hours after the last administration.
Groups of animals: • Group 1 - intact control -administration of normal saline four times. • Groups 2 and 3 - administration of the compound III at doses 50 and 500 µg/kg for 4 days. • Group 4 - single administration of sodium oxybutyrate at a dose […].

mongrel male mice = experiment: Delayed hypersensitivity induced by picryl chloride (TCB), local ointment; format: in vivo
Procedure: Effect study of the compounds on the delayed type hypersensitivity reaction induced in mice by 2.4.6-trichlorobenzol (TCB) was carried out according to the method of Tarayre et al. [Tarayre J.P., Barbara M., Aliaga M., Tisne-Versilles. Comparative actions of immunosuppressants, glucocorticoids and non-steroidal antiinflammatory drugs on various models of delayed hypersensitivity and on a non-immune inflammation in mice. Arzneim.-Forsch. Drug Res. (1990), Vol. 40, pip.1125-1131].
Studies were conducted on mongrel male mice with initial body mass 30-35 g. Each group included 10 animals. Mice were sensitized with 0.1 ml 3% TCB solution in acetone application on a shaved abdominal area. In 7 days, the anaphylaxis-provoking TCB dose (0.025 ml of 3% solution) was applied on both surfaces of the right ear. In 30 minutes 0.05 ml of the test ointment were rubbed into the same surfaces. 24 hours after edema induction, mice were sacrified, ears were cut off and weighed. Allergic reaction intensity was assessed by change in weight in grams of the right ear (the test one) in relation to the left ear (the control ear).
Allergic reaction inhibition expressed in percent was calculated according to the formula: 100-[(R-L(exper.))/(L):(R-L(control))/(L)x100](%) [formula] where R - the right ear weight, L - the left ear weight.
The test compounds were applied on the ear in the form of 1% and 5% ointment the base of which were 10% methylcellulose solution and propylene glycol at 1:1 ratio.
Groups of animals: • Group 1 - control, ointment base without active substance was applied on the ear of animals. • Group 2 - ointment base comprising 1% compound III was applied on the ear of animals. • Group 3 - ointment base comprising 1% compound XVII was applied on the ear of animals. • Group 4 - ointment base comprising 5% compound XLVIII was applied on the ear of animals.

[2] = test system: Isolate HIV-1/IV17 of type 1 human immunodeficiency virus; experiment: Viability of MT-4 cells acutely infected with HIV-1; format: cell-based; settings: day 7
Procedure: Study was carried out on the culture of human lymphoblastoid cells MT-4. Isolate HIV-1/IV17 of type 1 human immunodeficiency virus from the collection of the D.I.Ivanovsky Institute for Virology was used in experiment. The test compounds of general formula (I): III, VI, VII were introduced into cellular culture at concentrations 1.0; 0.1 and 0.01 µg/ml. The reference drug Azidothymidine was introduced at a dose 0.05 µM/ml. The compounds were introduced into the culture of MT-4 cells at a dose 1000 TCD50 one hour prior to virus introduction. Viability of MT-4 cells was estimated by day 7 of experiment.
Viability of cells was the main efficacy parameter of the test compounds.

mongrel male rats [3] = experiment: Hypolipidemic activity: experimental hyperlipidemia (atherogenic load); settings: atherogenic diet, oral last four days, 50 µg/kg;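 note: serum drawn 18 h after the final dose from rats deprived of food over that interval, groups of 10 animals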
Procedure: as §1, §2, §3, §4

[4] = test system: hepatic P-450 cytochrome system; experiment: Hexenal sleep duration in guinea pigs; format: in vivo; settings: oral 3 days, 50 µg/kg, control 24.76 ± 3.23
Procedure: Change in Hexenal sleep (HS) duration is the in vivo measurable index of hepatic P-450 cytochrome system condition.
Studies were carried out on male mice of the lines BALB/c*h75, C57B1/6, CBA, DBA/2, first generation CBF1 and BDF1 hybrides, with initial mass 18-20 g, each group including 10 mice; and on mongrel male guinea pigs with initial mass 250-300 g, each group including 24 animals. All the test compounds (from II to LII) were administered orally in drinking water and for three days at doses 50 and 500 µg/kg. Hexenal hydrochloride at a dose […] of animal mass was administered 24 hours after the last drug administration, except for line BALB/c*h75 mice, which were administered Hexenal at a dose 60 µg/kg at the same terms, and guinea pigs for which Hexenal dose was 30 µg/kg. HS duration was determined in minutes.

**Q.** For `O=C(O)CCCC(=O)NCCc1c[nH]cn1` [compound III, N-GLUTARYLHISTAMINE], which “Difference in paw masses” value (mongrel white male mice; oral days 3, 4, 5, 50 µg/kg) is on record?
**A.** Its value is 16.7 ± 1.9 g.

**Q.** And the “Difference in paw masses” value (mongrel white male mice; oral days 3, 4, 5, 500 µg/kg)?
**A.** Its value is 17.2 ± 1.3 g.

**Q.** What about the “Percent to the control” value (mongrel white male mice; 50 µg/kg) of the same molecule?
**A.** The value was 75.5%.

**Q.** What about the “Reaction index, percent” value (mongrel white male mice; 50 µg/kg) of the same molecule?
**A.** Its value is 10.3 ± 1.1%.

**Q.** And the “Percent to the control” value (mongrel white male mice; 500 µg/kg)?
**A.** Its value is 79.3%.

**Q.** What about the “Reaction index, percent” value (mongrel white male mice; 500 µg/kg) of the same molecule?
**A.** Its value is 10.8 ± 0.8%.

**Q.** And the HDL-CS (mongrel male rats [1]; 0.05 mg/kg)?
**A.** The HDL-CS was 46,1±2,8**^A.

**Q.** And the Kcs (mongrel male rats [1]; 0.05 mg/kg)?
**A.** Its Kcs is 0,9±0,04***^A.

**Q.** What about the “LDL-CS+ VLDL-CS” value (mongrel male rats [1]; 0.05 mg/kg) of the same molecule?
**A.** The value was 41,7±3,1***^A.

**Q.** What about the “Total CS” value (mongrel male rats [1]; 0.05 mg/kg) of the same molecule?
**A.** Its value is 87,8±2,8*^A.

**Q.** What about the Triglycerides (mongrel male rats [1]; 0.05 mg/kg) of the same molecule?
**A.** Its Triglycerides is 136,4±9,7.

**Q.** What about the HDL-CS (mongrel male rats [1]; 0.5 mg/kg) of the same molecule?
**A.** Its HDL-CS is 53,1±6,2*^A.

**Q.** And the Kcs (mongrel male rats [1]; 0.5 mg/kg)?
**A.** The Kcs was 0,62±0,05***^A.

**Q.** What about the “LDL-CS+ VLDL-CS” value (mongrel male rats [1]; 0.5 mg/kg) of the same molecule?
**A.** Its value is 33,1±2,9***^A.

**Q.** And the “Total CS” value (mongrel male rats [1]; 0.5 mg/kg)?
**A.** The value was 86,2±5,6.

**Q.** What about the Triglycerides (mongrel male rats [1]; 0.5 mg/kg) of the same molecule?
**A.** Its Triglycerides is 90,0±6,7***^A.

**Q.** What about the Effect in percent (mongrel mice; 50 µg/kg) of the same molecule?
**A.** Its Effect in percent is 105 ± 3,5%.

**Q.** What about the Effect in percent (mongrel mice; 500 µg/kg) of the same molecule?
**A.** The Effect in percent was 113 ± 5,2%.

**Q.** And the “Lifetime under hypoxic conditions (minutes)” value (mongrel mice; 50 µg/kg)?
**A.** Its value is 322,0 ± 10,9 minutes.

**Q.** And the “Lifetime under hypoxic conditions (minutes)” value (mongrel mice; 500 µg/kg)?
**A.** The value was 345,3 ± 15,9 minutes.

**Q.** What about the “Weight of years (g) left” value (mongrel male mice) of the same molecule?
**A.** Its value is 15.4 ± 1.12 g.

**Q.** What about the “Reaction inhibition (%)” value (mongrel male mice; mice, TCB, 1% ointment) of the same molecule?
**A.** The value was 38%.

**Q.** And the “weight increment” value (mongrel male mice; mice, TCB, 1% ointment)?
**A.** Its value is 4.9 ± 0.5 g.

**Q.** What about the “protective effect against cytodestructive HIV-1 effect (viability of MT-4 cells)” value ([2]; 1.0 and 0.1 µg/ml) of the same molecule?
**A.** Its value is “comparable with the effect of the reference drug Azidothymidine”.

**Q.** And the viability at 0.01 µg/mL ([2]; Human immunodeficiency virus 1, MT4, 168 h, 0.01 µg/ml, series 1 (infected cells 10-17, non-infected 90), read-out: Viability of cells in percent)?
**A.** The viability at 0.01 µg/mL was 18%.

**Q.** And the viability at 0.1 µg/mL ([2]; Human immunodeficiency virus 1, MT4, 168 h, 0.1 µg/ml, series 1 (infected cells 10-17, non-infected 90), read-out: Viability of cells in percent)?
**A.** Its viability at 0.1 µg/mL is 39%.

**Q.** What about the viability at 1 µg/mL ([2]; Human immunodeficiency virus 1, MT4, 168 h, 1.0 µg/ml, series 1 (infected cells 10-17, non-infected 90), read-out: Viability of cells in percent) of the same molecule?
**A.** Its viability at 1 µg/mL is 68%.

**Q.** With γ-L-glutamylhistamine [compound XLIV] as the molecule, how does the HDL-CS (mongrel male rats [3]; blood) read?
**A.** The HDL-CS was 47,3±1,1***^A.

**Q.** And the “LDL-CS+ VLDL-CS” value (mongrel male rats [3]; blood)?
**A.** Its value is 37,4±1,1***^A.

**Q.** What about the “Total CS” value (mongrel male rats [3]; blood) of the same molecule?
**A.** Its value is 84,7±3,0**^A.

**Q.** And the Triglycerides (mongrel male rats [3]; blood)?
**A.** Its Triglycerides is 85,0±6,3***^A.

**Q.** And the Kcs (mongrel male rats [3]; cholesterol index)?
**A.** The Kcs was 0,79±0,02***^A.

**Q.** And the “Hexenal sleep duration (minutes)” value [4]?
**A.** Its value is 13.48 ± 1.02* minutes.
